Test results reported in PubChem BioAssay (NCI).
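Five concentrations, 48 hours, 96-well plates. Abbreviation: GI50, concentration required for 50% inhibition of growth. TGI marks complete inhibition of growth.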

Experiments:
Experiment in all cases: NCI tumour cell line growth inhibition, 48 h
K-562 leukemia = test system: K-562 leukemia
UO-31 renal = test system: UO-31 renal
EKVX NSCLC = test system: EKVX NSCLC
HOP-62 NSCLC = test system: HOP-62 NSCLC
TK-10 renal = test system: TK-10 renal
A498 renal = test system: A498 renal
UACC-62 melanoma = test system: UACC-62 melanoma
NCI-H522 lung = test system: NCI-H522 lung
SF-268 CNS = test system: SF-268 CNS
SF-295 CNS = test system: SF-295 CNS

COc1cc2nc(-c3ccc(C(F)(F)F)cc3)cc(OCCCN3CCCC3)c2cc1OC
GI50 (K-562 leukemia): 0.445 µM
TGI (K-562 leukemia): 4.54 µM
GI50 (UO-31 renal): 1.59 µM
TGI (UO-31 renal): 14.2 µM
GI50 (EKVX NSCLC): 0.848 µM
TGI (EKVX NSCLC): 24.5 µM
GI50 (HOP-62 NSCLC): 1.42 µM
TGI (HOP-62 NSCLC): 18.5 µM
GI50 (TK-10 renal): 7.51 µM
TGI (TK-10 renal): > 34.5 µM
GI50 (A498 renal): 1.07 µM
TGI (A498 renal): 4.31 µM
GI50 (UACC-62 melanoma): 1.57 µM
TGI (UACC-62 melanoma): 6.6 µM
GI50 (NCI-H522 lung): 1.15 µM
TGI (NCI-H522 lung): 25.8 µM
GI50 (SF-268 CNS): 3.5 µM
TGI (SF-268 CNS): > 48.1 µM
GI50 (SF-295 CNS): 0.393 µM
TGI (SF-295 CNS): 1.64 µM

CCCCCCCCCCCCCC[n+]1cccc(C(N)=O)c1
GI50 (K-562 leukemia): 1.88 µM
TGI (K-562 leukemia): 6.53 µM
GI50 (UO-31 renal): 9.42 µM
TGI (UO-31 renal): 26.3 µM
GI50 (EKVX NSCLC): 1.97 µM
TGI (EKVX NSCLC): 6.08 µM
GI50 (HOP-62 NSCLC): 1.35 µM
TGI (HOP-62 NSCLC): 3.41 µM
GI50 (TK-10 renal): 0.675 µM
TGI (TK-10 renal): 2.02 µM
GI50 (A498 renal): 5.57 µM
TGI (A498 renal): 29.2 µM
GI50 (UACC-62 melanoma): 1.15 µM
TGI (UACC-62 melanoma): 3.48 µM
GI50 (NCI-H522 lung): 1.31 µM
TGI (NCI-H522 lung): 6.24 µM
GI50 (SF-268 CNS): 1.66 µM
TGI (SF-268 CNS): 4.48 µM
GI50 (SF-295 CNS): 1.69 µM
TGI (SF-295 CNS): 4.23 µM

CC1(C)CC(=O)C(CC2C(=O)c3ccccc3C2=O)C(=O)C1
TGI (K-562 leukemia): > 100 µM
TGI (UO-31 renal): > 100 µM
TGI (EKVX NSCLC): > 100 µM
TGI (HOP-62 NSCLC): > 100 µM
TGI (TK-10 renal): > 100 µM
TGI (A498 renal): > 100 µM
TGI (UACC-62 melanoma): > 100 µM
TGI (NCI-H522 lung): > 100 µM
TGI (SF-268 CNS): > 100 µM
TGI (SF-295 CNS): > 100 µM

Cc1c2ccncc2c(C)c2c1[nH]c1ccc(O)c(OCC(F)(F)F)c12
TGI (K-562 leukemia): 33.9 µM
TGI (UO-31 renal): 19.9 µM
TGI (EKVX NSCLC): 20.5 µM
TGI (HOP-62 NSCLC): 20.9 µM
TGI (TK-10 renal): 25 µM
TGI (A498 renal): 37.5 µM
TGI (UACC-62 melanoma): 21.6 µM
TGI (NCI-H522 lung): 15.9 µM
TGI (SF-268 CNS): 24.1 µM
TGI (SF-295 CNS): 14.8 µM

COC(=O)C1C(=O)N(CCc2c[nH]c3ccccc23)C[C@@H]2CCC(=O)C[C@H]12 (stereo not given in full)
TGI (K-562 leukemia): > 100 µM
TGI (UO-31 renal): > 100 µM
TGI (EKVX NSCLC): > 100 µM
TGI (HOP-62 NSCLC): > 100 µM
TGI (TK-10 renal): > 100 µM
TGI (A498 renal): > 100 µM
TGI (UACC-62 melanoma): > 100 µM
TGI (NCI-H522 lung): > 100 µM
TGI (SF-268 CNS): > 100 µM
TGI (SF-295 CNS): > 100 µM

CC(=O)[CH-]C(=O)c1ccccc1.CC(=O)[CH-]C(=O)c1ccccc1.CC1(C)OCC(C2OC3OC(C)(C)OC3C2[O-])O1.CC[O-].[Ti+4] (stereo not given)
GI50 (K-562 leukemia): 15.3 µM
TGI (K-562 leukemia): 62.6 µM
GI50 (UO-31 renal): 18.8 µM
TGI (UO-31 renal): 41.9 µM
GI50 (EKVX NSCLC): 6.56 µM
TGI (EKVX NSCLC): 23.3 µM
GI50 (HOP-62 NSCLC): 15.9 µM
TGI (HOP-62 NSCLC): 31.1 µM
GI50 (TK-10 renal): 12.4 µM
TGI (TK-10 renal): 27 µM
GI50 (A498 renal): 15.3 µM
TGI (A498 renal): 28.6 µM
GI50 (UACC-62 melanoma): 14.2 µM
TGI (UACC-62 melanoma): 28.8 µM
GI50 (NCI-H522 lung): 16.5 µM
TGI (NCI-H522 lung): 30.8 µM
GI50 (SF-268 CNS): 13.1 µM
TGI (SF-268 CNS): 29 µM
GI50 (SF-295 CNS): 17.1 µM
TGI (SF-295 CNS): 31.6 µM

Cc1cccc(N(CC(=O)O)S(=O)(=O)c2ccccc2)c1
TGI (K-562 leukemia): > 100 µM
TGI (UO-31 renal): > 100 µM
TGI (EKVX NSCLC): > 100 µM
TGI (TK-10 renal): > 100 µM
TGI (A498 renal): > 100 µM
TGI (UACC-62 melanoma): > 100 µM
TGI (NCI-H522 lung): > 100 µM
TGI (SF-268 CNS): > 100 µM
TGI (SF-295 CNS): > 100 µM

Cc1cc2c(cc1Cl)S/C(=C/C(=O)O)C(Nc1cccc3nsnc13)=NS2(=O)=O
GI50 (K-562 leukemia): 70.1 µM
TGI (K-562 leukemia): > 100 µM
GI50 (UO-31 renal): > 51.1 µM
TGI (UO-31 renal): > 79.2 µM
GI50 (EKVX NSCLC): > 10.5 µM
TGI (EKVX NSCLC): > 19.9 µM
GI50 (HOP-62 NSCLC): > 54.8 µM
TGI (HOP-62 NSCLC): > 66.9 µM
GI50 (TK-10 renal): > 58 µM
TGI (TK-10 renal): > 72.5 µM
GI50 (A498 renal): > 100 µM
TGI (A498 renal): > 100 µM
GI50 (UACC-62 melanoma): 43 µM
TGI (UACC-62 melanoma): > 66.2 µM
GI50 (NCI-H522 lung): 30.7 µM
TGI (NCI-H522 lung): > 77.4 µM
GI50 (SF-268 CNS): 49.2 µM
TGI (SF-268 CNS): > 84.4 µM
GI50 (SF-295 CNS): > 56.9 µM
TGI (SF-295 CNS): > 71.5 µM

O=C(NCCN1CCNCC1)c1ccc(Nc2nc3ccccc3c3occc23)cc1
GI50 (K-562 leukemia): 14.4 µM
TGI (K-562 leukemia): 40.1 µM
GI50 (UO-31 renal): 11.1 µM
TGI (UO-31 renal): 27.9 µM
GI50 (EKVX NSCLC): 9.45 µM
TGI (EKVX NSCLC): 27.2 µM
GI50 (HOP-62 NSCLC): 10.3 µM
TGI (HOP-62 NSCLC): 22.4 µM
GI50 (TK-10 renal): 18.3 µM
TGI (TK-10 renal): 35.2 µM
GI50 (A498 renal): 16.2 µM
TGI (A498 renal): 36.3 µM
GI50 (UACC-62 melanoma): 17.6 µM
TGI (UACC-62 melanoma): 32 µM
GI50 (NCI-H522 lung): 10.3 µM
TGI (NCI-H522 lung): 28.3 µM
GI50 (SF-268 CNS): 21.3 µM
TGI (SF-268 CNS): > 100 µM
GI50 (SF-295 CNS): 10.9 µM
TGI (SF-295 CNS): 30.5 µM

COc1cccc(COc2cc(-n3cnc4ccccc43)sc2C(N)=O)c1
GI50 (K-562 leukemia): > 25 µM
TGI (K-562 leukemia): > 25 µM
GI50 (UO-31 renal): > 25 µM
TGI (UO-31 renal): > 25 µM
GI50 (EKVX NSCLC): > 25 µM
TGI (EKVX NSCLC): > 25 µM
GI50 (HOP-62 NSCLC): 5.34 µM
TGI (HOP-62 NSCLC): > 25 µM
GI50 (TK-10 renal): > 25 µM
TGI (TK-10 renal): > 25 µM
GI50 (A498 renal): 0.92 µM
TGI (A498 renal): > 25 µM
GI50 (UACC-62 melanoma): 18.1 µM
TGI (UACC-62 melanoma): > 25 µM
GI50 (NCI-H522 lung): 9.92 µM
TGI (NCI-H522 lung): > 25 µM
GI50 (SF-268 CNS): 5.88 µM
TGI (SF-268 CNS): > 25 µM
GI50 (SF-295 CNS): > 15.6 µM
TGI (SF-295 CNS): > 25 µM

C=CCNC(=O)N(CCC)CCCC(NC(C)=O)C(=O)NCc1ccccc1 (stereo not given)
TGI (K-562 leukemia): > 100 µM
TGI (UO-31 renal): > 100 µM
TGI (EKVX NSCLC): > 100 µM
TGI (HOP-62 NSCLC): > 100 µM
TGI (TK-10 renal): > 100 µM
TGI (A498 renal): > 100 µM
TGI (UACC-62 melanoma): > 100 µM
TGI (NCI-H522 lung): > 100 µM
TGI (SF-268 CNS): > 100 µM
TGI (SF-295 CNS): > 100 µM

O=C(Cl)C1=C(c2ccccc2)C1c1ccccc1 (stereo not given)
TGI (K-562 leukemia): > 100 µM
TGI (EKVX NSCLC): > 100 µM
TGI (HOP-62 NSCLC): > 100 µM
TGI (TK-10 renal): > 100 µM
TGI (A498 renal): > 100 µM
TGI (UACC-62 melanoma): > 100 µM
TGI (NCI-H522 lung): > 100 µM
TGI (SF-268 CNS): > 100 µM
TGI (SF-295 CNS): > 100 µM

N.N.N.N.N.O=S(=O)([O-])S(=O)(=O)[O-].[Co+3]
GI50 (K-562 leukemia): > 100 µM
TGI (K-562 leukemia): > 100 µM
GI50 (UO-31 renal): > 100 µM
TGI (UO-31 renal): > 100 µM
GI50 (EKVX NSCLC): > 100 µM
TGI (EKVX NSCLC): > 100 µM
GI50 (TK-10 renal): > 100 µM
TGI (TK-10 renal): > 100 µM
GI50 (A498 renal): > 100 µM
TGI (A498 renal): > 100 µM
GI50 (UACC-62 melanoma): > 100 µM
TGI (UACC-62 melanoma): > 100 µM
GI50 (NCI-H522 lung): > 100 µM
TGI (NCI-H522 lung): > 100 µM
GI50 (SF-268 CNS): > 100 µM
TGI (SF-268 CNS): > 100 µM
GI50 (SF-295 CNS): > 100 µM
TGI (SF-295 CNS): > 100 µM

O=C1c2cccc3cccc(c23)C(=O)N1O
TGI (K-562 leukemia): > 100 µM
TGI (UO-31 renal): > 100 µM
TGI (EKVX NSCLC): > 100 µM
TGI (TK-10 renal): > 100 µM
TGI (A498 renal): > 100 µM
TGI (UACC-62 melanoma): > 100 µM
TGI (NCI-H522 lung): > 100 µM
TGI (SF-268 CNS): > 100 µM
TGI (SF-295 CNS): > 100 µM

CC1=NN(C(=O)c2ccncc2)C(=O)C1N=Nc1ccc(F)cc1 (stereo not given)
TGI (K-562 leukemia): > 100 µM
TGI (UO-31 renal): > 100 µM
TGI (EKVX NSCLC): > 100 µM
TGI (TK-10 renal): > 100 µM
TGI (A498 renal): > 100 µM
TGI (UACC-62 melanoma): > 100 µM
TGI (NCI-H522 lung): > 100 µM
TGI (SF-268 CNS): > 100 µM
TGI (SF-295 CNS): > 100 µM

CN(C)C(=S)Nc1nnc(Nc2ccccc2)s1
TGI (K-562 leukemia): > 100 µM
TGI (UO-31 renal): > 100 µM
TGI (EKVX NSCLC): > 100 µM
TGI (HOP-62 NSCLC): > 100 µM
TGI (A498 renal): > 100 µM
TGI (NCI-H522 lung): > 100 µM
